Source: patent US20220117938A1, “COMBINATON THERAPY WITH A DON PRODRUG AND AN IMMUNE CHECKPOINT INHIBITOR” (DRACEN PHARMACEUTICALS, INC., priority 2019, published 2022)

Assays:
MC-38 tumors [1] = assay: Anti-tumor efficacy of Compound 1 with and without anti-PD-1 in the subcutaneous MC-38 model (Example 2D); type: in vivo, Mus musculus; settings: for MST: endpoint tumor volume 2000 mm^3; for T/C / TGI: day 16
Description: Female C57BL/6 mice were inoculated subcutaneously at right flank with MC-38 cells for tumor development. Five days after tumor inoculation, 48 mice with tumor size ranging from 50-100 mm^3 (average tumor size 72 mm^3) were selected and assigned into six groups using stratified randomization with 8 mice per group based upon their tumor volumes. The treatments were started from the day of randomization (defined as D0), Group 1 was treated with Vehicle (Tween 80:Ethanol:Saline—5:5:90 v/v/v), s.c., qd×14, Group 2 was treated with Anti-PD-1 10 mg/kg i.p. q4d×4, Group 3 was treated with Compound 1 0.3 mg/kg s.c. q.d.×14, Group 4 was treated with Compound 1 0.3 mg/kg s.c. q.d.×14+Anti-PD-1 10 mg/kg i.p. q4d×4, Group 5 was treated with Compound 1 1 mg/kg s.c. q.d.×14, Group 6 was treated with Compound 1 1 mg/kg s.c. q.d.×14+Anti-PD-1 10 mg/kg i.p. q4d×4. The tumor sizes were measured three times per week during the treatment. The entire study was terminated on D37 after start of the treatment.
Animal Species: Mus musculus; Strain: […]; Age: 6-8 weeks; Sex: female; Body weight (at treatment start): 18-22 g.
The MC-38 tumor cells were maintained in vitro as a monolayer culture in DMEM medium supplemented with 10% heat inactivated fetal bovine serum and 100 μg/mL penicillin streptomycin at 37° C. in an atmosphere of 5% CO2 in air. The tumor cells were routinely subcultured twice weekly by trypsin-EDTA treatment. The cells growing to a confluency around 70%-80% were harvested and counted for tumor inoculation. The cultured MC-38 were harvested, re-suspended in base medium at a density of 1×10^7 cells/mL with viability >90%. Each mouse was inoculated subcutaneously at the right flank with 1×10^6 cells in 0.1 ml base medium for tumor development.
The treatments were started on day 5 after tumor inoculation when the tumor size reached 50-100 mm^3 (average tumor size 72 mm^3). Each group consisted of 8 tumor bearing mice.
The testing article was administrated at the dosing volume indicated to the mice according to the predetermined regimen as shown Table 2D-1. Testing article formulations were prepared according to standard procedures. Details regarding tumor measurements and endpoints, and statistical analysis are provided in EXAMPLE 3.
Tumor sizes were measured three times a week in two dimensions using a caliper, and the volume expressed in mm^3 using the formula: V=0.5 a×b^2 where a and b are the long and short diameters of the tumor, respectively. The tumor sizes were then used for the calculations of both tumor growth inhibition (TGI) and T/C values.
TGI is calculated for each group using the formula: […]
TVTreatment_DayN is the average tumor volume of a treatment group on a given day, TVTreatment_Day0 is the average tumor volume of the treatment group on the first day of treatment, TVVehicle_DayN is the average tumor volume of the vehicle control group on a given day, and TVVehicle_Day0 is the average tumor volume of the vehicle group on the first day of treatment.
The T/C value (in percent) is an indication of antitumor effectiveness, T/C (%)=RTVTreatment/RTVControl×100% (RTVTreatment: the mean RTV of the treatment group; RTVControl: the mean RTV of the vehicle treated group). RTV (relative tumor volume)=TVDayN/TVDay0. TVDayN and TVDay0 is the tumor volume on day N and Day 0 respectively. T/C (%)≤42% is considered as significant antitumor activity and <10% is considered as highly significant antitumor activity by the National Cancer Institute criteria.
Animal survival curve: When an individual animal reached to the termination endpoint (TV>2000 mm^3), the mouse was euthanized. The time from treatment initiation to the termination was deemed as its survival time. Survival curve was plotted by Kaplan-Meier method. Median survival time (MST) was calculated for each group. Increase of life span (ILS) was calculated according to the following formula: […]
ILS (%)>25% is considered as a biologically significant survival benefit. […]

MC-38 tumors [2] = assay: MC-38 re-implantation study in tumor free mice (Example 3); type: in vivo, Mus musculus; settings: for Tumor volume (Mean ± SEM): four tumor free mice of Group 5 (0.7 mpk 5-days ON 2-days OFF x 4 cycles)
Description: Four mice in Group 5 were tumor free on D67 and 1×10^6 MC-38 cells suspended in 100 μL base DMEM were inoculated subcutaneously into the left flank. 5 naïve mice were inoculated with the same inoculation condition as control. The tumor sizes were measured three times per week during the treatment. The study was terminated on D102.
Four mice in Group 5 were tumor free on D67 and 1×10^6 MC-38 cells suspended in 100 μL base DMEM were inoculated subcutaneously into the left flank. 5 naïve mice were inoculated with the same inoculation condition as control.

A549 tumors = assay: Anti-tumor efficacy of Compound 1 in the A549 xenograft model (Example 11); type: in vivo, mice
Description: Female BALB/c nude mice were inoculated subcutaneously in the right flank with A549 cells for tumor development. Eight days after tumor inoculation, mice with tumor sizes ranging from 100-200 mm^3 (average tumor size 156 mm^3) were selected and assigned into groups using stratified randomization with 8 mice per group based upon their tumor volumes. The treatments were started from the day of randomization (defined as D0), Group 1 was treated with Vehicle control, 10 ml/kg, IP, bid×21; Group 4 was treated with Compound 1; 1.4 mg/kg, SC, 5d ON, 2 d OFF×3 cycles; and Group 5 was treated with Compound 1, 3.3 mg/kg, IV, tiw, (Fri, Sun, Tues), ×3 cycles. The tumor sizes were measured two times per week during the treatment. The entire study was terminated on D21 after start of the treatment. All treatments were well-tolerated without any adverse effects or significant body weight loss.

[3] = Compound 1 0.3 mg/kg qd x 14, s.c.
[4] = 4 cured mice of Group 5 (0.7 mpk) re-implanted with MC-38 cells
[5] = Group 4, 1.4 mg/kg SC 5 d ON 2 d OFF x3 cycles
[6] = Group 4, 1.4 mg/kg SC 5 d ON 2 d OFF x3 cycles, day 21
[7] = Group 5, 3.3 mg/kg IV tiw x3 cycles
[8] = Group 5, 3.3 mg/kg IV tiw x3 cycles, day 21

## CC(=O)N[C@@H](Cc1c[nH]c2ccccc12)C(=O)N[C@@H](CCC(=O)C=[N+]=[N-])C(=O)OC(C)C [Compound 1, Isopropyl (S)-2-((S)-2-acetamido-3-(1H-indol-3-yl)propanamido)-6-diazo-5-oxohexanoate]
MC-38 tumors [1]; [3]
  ILS: 52.6%
  MST: 29 days
MC-38 tumors [1]; Compound 1 1 mg/kg qd x 14, sc
  ILS: 65.8%
  MST: 31.5 days
MC-38 tumors [1]; Cpd. 1 0.3 mg/kg qd x 14, s.c.
  RTV at day 16: 2.73 ± 0.37
  T/C: 14.06%
  TGI: 90.53%
MC-38 tumors [1]; Cpd. 1 1 mg/kg qd x 14, sc
  RTV at day 16: 0.40 ± 0.11
  T/C: 2.08%
  TGI: 103.26%
MC-38 tumors [2]; [4]
  Re-implanted cured mice still tumor free on Day 35 after re-implantation: one
  Re-implanted cured mice that regrew the tumor: three
MC-38 tumors [2]; Day 7 after re-implantation
  Tumor volume (Mean ± SEM): 32 ± 14 mm^3
MC-38 tumors [2]; Day 9 after re-implantation
  Tumor volume (Mean ± SEM): 106 ± 44 mm^3
MC-38 tumors [2]; Day 11 after re-implantation
  Tumor volume (Mean ± SEM): 152 ± 55 mm^3
MC-38 tumors [2]; Day 14 after re-implantation
  Tumor volume (Mean ± SEM): 373 ± 174 mm^3
MC-38 tumors [2]; Day 16 after re-implantation
  Tumor volume (Mean ± SEM): 568 ± 258 mm^3
MC-38 tumors [2]; Day 18 after re-implantation
  Tumor volume (Mean ± SEM): 886 ± 429 mm^3
MC-38 tumors [2]; Day 21 after re-implantation
  Tumor volume (Mean ± SEM): 1911 ± 794 mm^3
A549 tumors; [5]
  RTV at day 21: 8.61 ± 1.30
  Tumor Size at day 21: 1300 ± 161 mm^3
A549 tumors; Group 4, 1.4 mg/kg SC 5 d ON 2 d OFF x3 cycles, day 0
  Tumor volume: 155 ± 10 mm^3
A549 tumors; Group 4, 1.4 mg/kg SC 5 d ON 2 d OFF x3 cycles, day 4
  Tumor volume: 187 ± 12 mm^3
A549 tumors; Group 4, 1.4 mg/kg SC 5 d ON 2 d OFF x3 cycles, day 7
  Tumor volume: 273 ± 25 mm^3
A549 tumors; Group 4, 1.4 mg/kg SC 5 d ON 2 d OFF x3 cycles, day 11
  Tumor volume: 500 ± 59 mm^3
A549 tumors; Group 4, 1.4 mg/kg SC 5 d ON 2 d OFF x3 cycles, day 14
  Tumor volume: 658 ± 92 mm^3
A549 tumors; Group 4, 1.4 mg/kg SC 5 d ON 2 d OFF x3 cycles, day 18
  Tumor volume: 1050 ± 112 mm^3
A549 tumors; [6]
  T/C: 75.88%
  TGI: 28.57%
  Tumor volume: 1300 ± 161 mm^3
A549 tumors; [7]
  RTV at day 21: 9.55 ± 1.16
  Tumor Size at day 21: 1453 ± 171 mm^3
A549 tumors; Group 5, 3.3 mg/kg IV tiw x3 cycles, day 0
  Tumor volume: 156 ± 10 mm^3
A549 tumors; Group 5, 3.3 mg/kg IV tiw x3 cycles, day 4
  Tumor volume: 180 ± 12 mm^3
A549 tumors; Group 5, 3.3 mg/kg IV tiw x3 cycles, day 7
  Tumor volume: 268 ± 21 mm^3
A549 tumors; Group 5, 3.3 mg/kg IV tiw x3 cycles, day 11
  Tumor volume: 473 ± 39 mm^3
A549 tumors; Group 5, 3.3 mg/kg IV tiw x3 cycles, day 14
  Tumor volume: 647 ± 66 mm^3
A549 tumors; Group 5, 3.3 mg/kg IV tiw x3 cycles, day 18
  Tumor volume: 1107 ± 119 mm^3
A549 tumors; [8]
  T/C: 84.12%
  TGI: 19.04%
  Tumor volume: 1453 ± 171 mm^3
